Source: patent publication US9078712B2, “Preformed drug-eluting device to be affixed to an anterior spinal plate” (Warsaw Orthopedic, Inc., priority 2009, dated 2015)

Assay: Effect of autoclave sterilization on final drug concentration in silicone (FIG. 11)
Type: physicochemical
Conditions: starting concentration about 0.0738 wt %, autoclave about 30 minutes
Protocol: FIG. 11 illustrates the effect of sterilization on the final drug concentration, showing the degradation rate versus autoclave time, for example, with a starting concentration of about 0.0738 wt % rifampin in the silicone and running the autoclave about 30 minutes will result in a final concentration of about 0.054 wt % rifampin in the silicone sleeve.
The term “weight percent” or “wt %” means the ratio of the drug weight to the weight of the biocompatible matrix, e.g., the silicone after sterilization, for example, an initial concentration of rifampin of about 0.0738 wt % with about a 30 minute autoclave time will result in a final wt % of about 0.054 in the sterilized product.

## CO[C@H]1/C=C/O[C@@]2(C)Oc3c(C)c(O)c4c(O)c(c(/C=N/N5CCN(C)CC5)c(O)c4c3C2=O)NC(=O)/C(C)=C\C=C\[C@H](C)[C@H](O)[C@@H](C)[C@@H](O)[C@@H](C)[C@H](OC(C)=O)[C@@H]1C [rifampin]
  final concentration of rifampin in the silicone after autoclave sterilization: about 0.054 wt %
